The target in assay [1] is T1, pseudo-kinase domain (JH2, amino-acids 536-812) of human V617F mutant JAK2 (Homo sapiens, UniProt O60674, F794H/V617F/W659A/W777A).
T1 construct: pseudo-kinase domain (JH2, amino-acids 536-812 with 3 surface mutations W659A, W777A, F794H); purchased BPS Bioscience 79498; host or cells: baculovirus expression system
Nature of the assay: JAK2 LanthaScreen JH2-V617F Binding Assay. The following applies: 1 hour at 25° C. The essentials: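 Binding was measured as TR-FRET displacement of 50 nM tracer from 0.26 nM biotinylated His-Avi protein, incubated one hour at 25° C; IC50 from a four-parameter fit.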

The target of assay [2] is T2, pseudo-kinase domain (JH2, amino-acids 536-812) of human Wild Type JAK2 (Homo sapiens, UniProt O60674, F794H/W659A/W777A).
T2 construct: pseudo-kinase domain (JH2, amino-acids 536-812 with 3 surface mutations W659A, W777A, F794H); purchased BPS Bioscience 79463; host or cells: baculovirus expression system
As to the kind of experiment: JAK2 LanthaScreen JH2-WT Binding Assay. As to conditions: 1 hour at 25° C. In outline:
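Compounds, serially diluted, were mixed with 0.145 nM JH2 domain, 50 nM tracer and 0.25 nM streptavidin-Tb cryptate, then incubated 1 hour at 25° C before LanthaScreen reading. Wells containing 2 mM ATP defined non-specific binding. Four-parameter dose-response curves gave IC50.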
Background: In TR-FRET formats the signal depends on donor and acceptor labels being close together.

For assay [3], the target named is T3, catalytic domain (JH1, amino acids 826-1132) of human JAK2 (Homo sapiens, UniProt O60674).
T3 construct: catalytic domain (JH1, amino acids 826-1132) of human JAK2; purchased Carna Biosciences 08-445-20N; host or cells: baculovirus expression system
As to the kind of experiment: JAK2 LanthaScreen JH1 Binding Assay. The following applies: 2 hours at 25° C. In outline:
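Reaction held 1.5 nM biotinylated FLAG-JAK2 JH1, 50 nM tracer and 0.5 nM streptavidin-Tb in pH 7.5 Tris buffer; 2 mM ATP defined nonspecific binding.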

In assay [4] the target is T4, catalytic domain (JH1, amino acids 808-1132) of human JAK2 (Homo sapiens, UniProt O60674).
T4 construct: catalytic domain (JH1, amino acids 808-1132) of human JAK2; His (N); purchased BPS Bioscience 40450; host or cells: baculovirus expression system
As to the kind of experiment: JAK2 HTRF Enzyme Activity Assay. In kind it is biochemical. As to conditions: ATP 30 μM, read-out: ENZ 30UMATP. The essentials:
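IC50 values come from a four-parameter fit of HTRF signal (Eu-PY20 antibody/streptavidin-APC, EDTA-quenched). Reaction: 0.015 nM N-His JAK2 catalytic domain (baculovirus), 500 nM biotin-peptide, 30 μM or 1 mM ATP, Tris pH 7.5 buffer, 60 min, 25° C.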

Consider 14 compounds from patent US11958861B2, “Spirocyclic lactams as JAK2 V617F inhibitors” (Incyte Corporation, priority 2021, dated 2024).

Counter-ions that a name gives are not always drawn.

T2 sequence (O60674 536-812 W659A/W777A/F794H): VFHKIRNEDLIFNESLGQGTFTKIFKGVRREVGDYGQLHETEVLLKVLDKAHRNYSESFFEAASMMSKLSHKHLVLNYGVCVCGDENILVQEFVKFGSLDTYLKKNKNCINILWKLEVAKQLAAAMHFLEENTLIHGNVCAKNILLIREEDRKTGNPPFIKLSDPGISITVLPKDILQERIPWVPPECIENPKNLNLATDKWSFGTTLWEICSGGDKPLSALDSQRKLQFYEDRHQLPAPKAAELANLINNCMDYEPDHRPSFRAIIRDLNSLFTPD
T1 sequence (O60674 536-812 V617F/W659A/W777A/F794H): as the sequence (O60674 536-812 W659A/W777A/F794H) above, with V82F counted along it
T3 sequence (O60674 826-1132): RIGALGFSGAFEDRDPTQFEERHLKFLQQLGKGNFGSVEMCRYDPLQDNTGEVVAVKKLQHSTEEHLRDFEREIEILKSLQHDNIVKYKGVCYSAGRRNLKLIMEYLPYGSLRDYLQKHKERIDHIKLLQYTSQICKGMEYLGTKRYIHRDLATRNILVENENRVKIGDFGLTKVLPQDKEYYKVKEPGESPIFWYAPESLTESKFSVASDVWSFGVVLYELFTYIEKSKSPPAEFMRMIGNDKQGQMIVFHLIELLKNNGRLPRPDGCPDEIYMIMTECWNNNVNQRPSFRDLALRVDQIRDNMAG
T4 sequence (O60674 808-1132): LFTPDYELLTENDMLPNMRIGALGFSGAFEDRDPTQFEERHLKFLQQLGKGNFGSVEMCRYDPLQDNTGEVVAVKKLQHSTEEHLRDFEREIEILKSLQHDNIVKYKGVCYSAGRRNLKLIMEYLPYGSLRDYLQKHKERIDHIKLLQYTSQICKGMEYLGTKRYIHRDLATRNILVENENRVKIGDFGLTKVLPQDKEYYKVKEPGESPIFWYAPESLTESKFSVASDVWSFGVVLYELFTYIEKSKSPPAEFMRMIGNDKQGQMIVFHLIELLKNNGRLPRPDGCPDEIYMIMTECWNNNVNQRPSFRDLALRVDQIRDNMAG

Regarding `CN1C(=O)C2(CCN(c3ccncn3)CC2)c2c1cnc1[nH]c(-c3ccc(CN4CCC(S(C)(=O)=O)CC4)cc3)c(-c3ccccc3)c21` [Example 15, 6-Methyl-2-(4-((4-(methylsulfonyl)piperidin-1-yl)methyl)phenyl)-1-phenyl-1′-(pyrimidin-4-yl)-3,6-dihydro-7H-spiro[dipyrrolo[2,3-b:3′,2′-d]pyridine-8,4′-piperidin]-7-one, trifluoroacetate salt], the IC50 in assay [1] is at most 0.1 µM; in assay [2], at most 0.1 µM; in assay [3], over 2.5 µM; in assay [4] it was over 2.5 µM.

For the compound `CN1C(=O)C2(CC3CCC(C2)N3c2ccncn2)c2c1cnc1[nH]c(-c3ccc(CN4CCC(S(C)(=O)=O)CC4)cc3)c(-c3ccccc3)c21` [Example 16, (1R,3r,5S)-6′-Methyl-2′-((4(4-(methylsulfonyl)piperidin-1-yl)methyl)phenyl)-1′-phenyl-8-(pyrimidin-4-yl)-3′,6′-dihydro-7′H-8-azaspiro[bicyclo[3.2.1]octane-3,8′-dipyrrolo[2,3-b:3′,2′-d]pyridin]-7′-one, trifluoroacetate salt], the IC50 in assay [1] is at most 0.1 µM; in assay [2], at most 0.1 µM; in assay [3], over 2.5 µM; in assay [4], over 2.5 µM.

For `Cc1ncc(-c2c(-c3cnn(C)c3)[nH]c3ncc4c(c23)C2(CCN(c3ccncn3)CC2)C(=O)N4C)s1` [Example 17, 6-Methyl-2-(1-methyl-1H-pyrazol-4-yl)-1-(2-methylthiazol-5-yl)-1′-(pyrimidin-4-yl)-3,6-dihydro-7H-spiro[dipyrrolo[2,3-b:3′,2′-d]pyridine-8,4′-piperidin]-7-one, trifluoroacetate salt], the IC50 is 0.1 to 0.5 µM in assay [1], 0.1 to 0.5 µM in assay [2], over 2.5 µM in assay [3] and over 2.5 µM in assay [4].

As for `C=Cc1c(-c2cnn(C)c2)[nH]c2ncc3c(c12)C1(CCN(c2ccncn2)CC1)C(=O)N3C` [Example 18, 6-Methyl-2-(1-methyl-1H-pyrazol-4-yl)-1′-(pyrimidin-4-yl)-1-vinyl-3,6-dihydro-7H-spiro[dipyrrolo[2,3-b:3′,2′-d]pyridine-8,4′-piperidin]-7-one, trifluoroacetate salt], the IC50 is 1.25 to 2.5 µM in assay [1], 0.5 to 1.25 µM in assay [2], over 2.5 µM in assay [3] and over 2.5 µM in assay [4].

For the compound `CCc1c(-c2cnn(C)c2)[nH]c2ncc3c(c12)C1(CCN(c2ccncn2)CC1)C(=O)N3C` [Example 19, 1-Ethyl-6-methyl-2-(1-methyl-1H-pyrazol-4-yl)-1′-(pyrimidin-4-yl)-3,6-dihydro-7H-spiro[dipyrrolo[2,3-b:3′,2′-d]pyridine-8,4′-piperidin]-7-one, trifluoroacetate salt], the IC50 lay in the range of 0.1 to 0.5 µM in assay [1], 0.1 to 0.5 µM in assay [2], 1.25 to 2.5 µM in assay [3] and 1.25 to 2.5 µM in assay [4].

Consider `CN1C(=O)C2(CCN(c3ccncn3)CC2)c2c1cnc1[nH]c(-c3cnn(C)c3)c(C3=CCOCC3)c21` [Example 20, 1-(3,6-Dihydro-2H-pyran-4-yl)-6-methyl-2-(1-methyl-1H-pyrazol-4-yl)-(1-(pyrimidin-4-yl)-3,6-dihydro-7H-spiro[dipyrrolo[2,3-b:3′,2′-d]pyridine-8,4′-piperidin]-7-one, trifluoroacetate salt], for which the IC50 in assay [1] was 0.1 to 0.5 µM; in assay [2] it was 0.1 to 0.5 µM; in assay [3], over 2.5 µM; in assay [4], over 2.5 µM.

Turning to `COc1cccc(NC(=O)N2CCC3(CC2)C(=O)N(C)c2cnc4[nH]c(-c5ccc(CN6CCC(S(C)(=O)=O)CC6)cc5)c(-c5ccccc5)c4c23)c1` [Example 21, N-(3-Methoxyphenyl)-6-methyl-2-(4-((4-(methylsulfonyl)piperidin-1-yl)methyl)phenyl)-7-oxo-1-phenyl-6,7-dihydro-3H-spiro[dipyrrolo[2,3-b:3′,2′-d]pyridine-8,4′-piperidine]-1′-carboxamide, trifluoroacetate salt], the IC50 in assay [1] is at most 0.1 µM; in assay [2], at most 0.1 µM; in assay [3] it was over 2.5 µM; in assay [4], over 2.5 µM.

For `CN1C(=O)C2(CCCC2)c2c1cnc1[nH]c(-c3cnn(C)c3)c(-c3ccc(CN4CCN(S(C)(=O)=O)CC4)cc3)c21` [Example 22, 6′-Methyl-2′-(1-methyl-1H-pyrazol-4-yl)-1′-(4-((4-(methylsulfonyl)piperazin-1-yl)methyl)phenyl)-3′,6′-dihydro-7′H-spiro[cyclopentane-1,8′-dipyrrolo[2,3-b:3′,2′-d]pyridin]-7′-one, trifluoroacetate salt], the IC50 is 0.1 to 0.5 µM in assay [1], at most 0.1 µM in assay [2], over 2.5 µM in assay [3] and over 2.5 µM in assay [4].

`CCS(=O)(=O)N1CC(CC#N)(N2CCC3(CC2)C(=O)N(C)c2cnc4[nH]c(-c5cnn(C)c5)c(-c5ccccc5)c4c23)C1` [Example 23, 2-(1-(Ethylsulfonyl)-3-(6-methyl-2-(1-methyl-1H-pyrazol-4-yl)-7-oxo-1-phenyl-6,7-dihydro-3H-spiro[dipyrrolo[2,3-b:3′,2′-d]pyridine-8,4′-piperidin]-1′-yl)azetidin-3-yl)acetonitrile, trifluoroacetate salt]: the IC50 in assay [1] was at most 0.1 µM; in assay [2], at most 0.1 µM; in assay [3], 0.5 to 1.25 µM; in assay [4], 0.1 to 0.5 µM.

For `CC(=O)N1CC(CC#N)(N2CCC3(CC2)C(=O)N(C)c2cnc4[nH]c(-c5cnn(C)c5)c(-c5ccccc5)c4c23)C1` [Example 24, 2-(1-Acetyl-3-(6-methyl-2-(1-methyl-1H-pyrazol-4-yl)-7-oxo-1-phenyl-6,7-dihydro-3H-spiro[dipyrrolo[2,3-b:3′,2′-d]pyridine-8,4′-piperidin]-1′-yl)azetidin-3-yl)acctonitrile, trifluoroacetate salt], the IC50 in assay [1] was at most 0.1 µM; in assay [2], at most 0.1 µM; in assay [3], 0.5 to 1.25 µM; in assay [4], 0.1 to 0.5 µM.

In the case of `CCNC(=O)N1CC(CC#N)(N2CCC3(CC2)C(=O)N(C)c2cnc4[nH]c(-c5cnn(C)c5)c(-c5ccccc5)c4c23)C1` [Example 25, 3-(Cyanomethyl)-N-ethyl-3-(6-methyl-2-(1-methyl-1H-pyrazol-4-yl)-7-oxo-1-phenyl-6,7-dihydro-3H-spiro[dipyrrolo[2,3-b:3′,2′-d]pyridine-8,4′-piperidin]-1′-yl)azetidine-1-carboxamide, trifluoroacetate salt], the IC50 in assay [1] is at most 0.1 µM; in assay [2] it was at most 0.1 µM; in assay [3], 0.5 to 1.25 µM; in assay [4], 0.1 to 0.5 µM.

Take `CCNC(=O)NC1CC(CC#N)(N2CCC3(CC2)C(=O)N(C)c2cnc4[nH]c(-c5cnn(C)c5)c(-c5ccccc5)c4c23)C1` (centres unmarked) [Example 28, 1-(3-(Cyanomethyl)-3-(6-methyl-2-(1-methyl-1H-pyrazol-4-yl)-7-oxo-1-phenyl-6,7-dihydro-3H-spiro[dipyrrolo[2,3-b:3′,2′-d]pyridine-8,4′-piperidin]-1′-yl)cyclobutyl)-3-ethylurea, trifluoroacetate salt]: the IC50 in assay [1] was at most 0.1 µM; in assay [2] it was at most 0.1 µM; in assay [3], 0.1 to 0.5 µM; in assay [4], 0.1 to 0.5 µM.

Regarding `CN1C(=O)C2(CCN(C3(CC#N)CC(NS(=O)(=O)c4ccccc4)C3)CC2)c2c1cnc1[nH]c(-c3cnn(C)c3)c(-c3ccccc3)c21` (centres unmarked) [Example 29, N-(3-(Cyanomethyl)-3-(6-methyl-2-(1-methyl-1H-pyrazol-4-yl)-7-oxo-1-phenyl-6,7-dihydro-3H-spiro[dipyrrolo[2,3-b:3′,2′-d]pyridine-8,4′-piperidin]-1-yl)cyclobutyl)benzenesulfonamide, trifluoroacctate salt], the IC50 in assay [1] is at most 0.1 µM; in assay [2] it was at most 0.1 µM; in assay [3], 0.5 to 1.25 µM; in assay [4], 0.5 to 1.25 µM.

Regarding `CN1C(=O)C2(CCN(C3(CC#N)CCC3)CC2)c2c1cnc1[nH]c(-c3cnn(CC(F)F)c3)c(-c3ccc4c(cnn4C)c3)c21` [Example 30, 2-(1-(2-(1-(2,2-Difluoroethyl)-1H-pyrazol-4-yl)-6-methyl-1-(1-methyl-1H-indazol-5-yl)-7-oxo-6,7-dihydro-3H-spiro[dipyrrolo[2,3-b:3′,2′-d]pyridine-8,4′-piperidin]-1′-yl)cyclobutyl)acetonitrile, trifluoroacetate salt], the IC50 in assay [1] was at most 0.1 µM; in assay [2], at most 0.1 µM; in assay [3] it was 0.1 to 0.5 µM; in assay [4], 0.1 to 0.5 µM.
